Tested on: CHO-K1 cells
Assay: Flow cytometric analysis of GFP expression (MFI, high fluorescing cells) in stably selected cell populations
Type: cell-based, Chinese hamster
Protocol: To efficiently test the impact of different procedures on improving selection stringency, experimental testing in stable cell populations was performed. As test molecules, enhanced green fluorescent protein (GFP) as well as a human IgG1 were chosen. CHO-K1 cells adapted to growth in suspension in defined medium were obtained from SAFC and cultivated in EX-CELL CD CHO Fusion medium (SAFC 14365C). Custom-made EX-CELL CD CHO Fusion medium without L-Proline (Pro) and without L-Ornithine (Orn) ("proline-free medium") was obtained from SAFC. The expression vector system was based on modified versions of "CET 1019 AS-puro-SceI" and "CET 1019 AD-puro-SceI" for GFP and human IgG1, respectively, from Merck-Millipore, containing the Puromycin selection marker (Puromycin N-acetyl-transferase) known to exert a high selection stringency. To minimize variations in cell populations derived from using different transfections or different vectors, the first series of experiments were conducted using vectors into which a P5CS expression cassette was cloned upstream of a UCOE element, in addition to the Puromycin selection marker present downstream of a gene of interest. This way, it was possible to pool different transfections using the same vector to obtain a common starting point, and split the mixture according to different selection conditions, minimizing any variations that are not due to selection conditions themselves. Expression of long and short isoform of murine P5CS (Protein: Delta-1-pyrroline-5-carboxylate synthase; Gene: Aldh18a1; UniProtKB accession number: Q9Z110-1 & Q9Z110-2) was driven by a SV40 promoter. A SV40 polyadenylation sequence was used at the 3' end of the gene. More details can be found in Table 1. Typically, CHO cells were cultivated in EX-CELL CD CHO Fusion medium containing 6 mM GlutaMAX (Thermo Fisher, 35050-38) ("CD-Fusion medium") at 37 °C with 5% CO2. Cells were grown to logarithmic phase under shaking conditions for transfections. 1e7 cells/cuvette were transfected using nucleofection (Amaxa Nucleofector II, following the manufacturer's recommendations) with 5 µg of linearized DNA. After transfection, cells were taken up in 1 ml medium and transferred into 1 well of a 6 well microtiter plate (MTP) already containing 1 ml medium. The cells were incubated for 24 h without shaking, after which 9 ml medium were added and cells were washed (either in standard or proline-free medium). Multiple transfections were pooled, if applicable. Cells were adjusted to 2e5 viable cells/ml and 10 ml were transferred to T-25 flasks. Reference cell populations were selected using 10 µg/ml Puromycin in CD-Fusion medium. For P5CS-based selection, EX-CELL CD CHO Fusion medium (custom-made, SAFC) containing 6 mM GlutaMAX without proline and without ornithine was used ("proline-free" or "CD-Fusion w/o Pro" medium), with or without additional selection pressure.
Cell viability of the different populations was monitored over time. As soon as cell populations appeared to recover from selection pressure, cells were transferred to Shake Flask or TubeSpins for expansion in suspension under shaking conditions. Subsequently, stable cell populations transfected with IgG were seeded at 2e5 viable cells/ml for batch fermentation without selection pressure (i.e. standard CD-Fusion medium containing proline and no other selective agents). The cells were cultivated for 5-10 days, viable cell densities and productivity were monitored over time. IgG titers were determined using Poros A-HPLC method. Typically, final batch titers were recorded at a time point at which majority of cultures had around 70% viability. Stable cell populations transfected with GFP vector were subjected to analysis by flow cytometry using Guava easyCyte 8HT Benchtop Flow Cytometer (Millipore). 250 µl of cell culture were transferred to 96 MTP and washed with PBS. Dead cells were excluded from analysis using propidium iodide (PI). […]

[1] = Table 11, day 19 post-transfection, pJF1555, CD-Fusion + 10 µg/ml Puromycin
[2] = Table 11, day 19 post-transfection, pJF1555, CD-Fusion w/o Pro + 0.25mM Pro + 10 µg/ml Puromycin
[3] = Table 13, day 19 post-transfection, pJF1555, CD-Fusion + 10 µg/ml Puromycin
[4] = Table 13, day 19 post-transfection, pJF1555, CD-Fusion w/o Pro + 0.25 mM Pro + 10 µg/ml Puromycin
[5] = Table 13, day 19 post-transfection, pJF1576 (control, human IgG1 vector), CD-Fusion + 10 µg/ml Puromycin
[6] = day 15 post-transfection, pJF1555, CD Fusion + 10 µg/ml Puromycin
[7] = day 15 post-transfection, pJF1555, CD-Fusion w/o Pro + 10 µg/ml Puromycin
[8] = day 15 post-transfection, pJF1555, CD-Fusion w/o Pro + 0.25 mM Pro + 10 µg/ml Puromycin
[9] = day 20 post-transfection, pJF1556, CD Fusion + 10 µg/ml Puromycin
[10] = day 20 post-transfection, pJF1556, CD-Fusion w/o Pro + 10 µg/ml Puromycin
[11] = day 20 post-transfection, pJF1556, CD-Fusion w/o Pro + 0.25 mM Pro + 10 µg/ml Puromycin
[12] = day 22 post-transfection, pJF2053, CD-Fusion + 10 µg/ml Puromycin
[13] = day 22 post-transfection, pJF2222, CD-Fusion + 10 µg/ml Puromycin
[14] = day 29 post-transfection, pJF2053, CD-Fusion + 10 µg/ml Puromycin

COc1ccc(C[C@H](N)C(=O)N[C@H]2[C@@H](O)[C@H](n3cnc4c(N(C)C)ncnc43)O[C@@H]2CO)cc1 [Puromycin]
Frequency of high fluorescing cells (Table 9, day 15 post-transfection, pJF1555, CD-Fusion w/o Pro + 0.25 mM Pro + 10 µg/ml Puromycin): 4.3%
Frequency of high fluorescing cells [1]: 3.4%
Median Fluorescence Intensity (MFI) (yellow) [1]: 13092
Frequency of high fluorescing cells [2]: 3.6%
Median Fluorescence Intensity (MFI) (yellow) [2]: 12860
Frequency of high fluorescing cells [3]: 1.0%
Median Fluorescence Intensity (MFI) (yellow) [3]: 6167
Frequency of high fluorescing cells [4]: 1.5%
Median Fluorescence Intensity (MFI) (yellow) [4]: 6625
Frequency of high fluorescing cells [5]: 0.1%
Median Fluorescence Intensity (MFI) (yellow) [5]: 9
Frequency of high fluorescing cells [6]: 5.1%
Median Fluorescence Intensity (MFI) (yellow) [6]: 5072
Frequency of high fluorescing cells [7]: 5.1%
Median Fluorescence Intensity (MFI) (yellow) [7]: 5102
Frequency of high fluorescing cells [8]: 4.6%
Median Fluorescence Intensity (MFI) (yellow) [8]: 4394
Frequency of high fluorescing cells [9]: 6.9%
Median Fluorescence Intensity (MFI) (yellow) [9]: 7827
Frequency of high fluorescing cells [10]: 8.7%
Median Fluorescence Intensity (MFI) (yellow) [10]: 9370
Frequency of high fluorescing cells [11]: 9.6%
Median Fluorescence Intensity (MFI) (yellow) [11]: 8783
Frequency of high fluorescing cells [12]: 2.5%
Median Fluorescence Intensity (MFI) (yellow) [12]: 11308
Frequency of high fluorescing cells [13]: 4.2%
Median Fluorescence Intensity (MFI) (yellow) [13]: 11476
Frequency of high fluorescing cells [14]: 2.3%
Median Fluorescence Intensity (MFI) (yellow) [14]: 11502
